Read-outs that look alike come from different tables or passages of the source.

Test [1] addresses T1, human δ receptors (Homo sapiens, UniProt P41143).
T1 construct: expressed in transfected cells
Description: Binding assay, cloned human δ receptor membranes (125I-Deltorphin II displacement).

For test [2], the target named is T1, human δ receptors. The test can be described thus: GTP[γ]35S binding functional assay, HEK-293S membranes expressing cloned human δ receptors. In kind it is biochemical. Conditions: for Emax: relative to standard δ agonist SNC80. As for the experimental part:
(§1) The agonist activity of the compounds is measured by determining the degree to which the compounds receptor complex activates the binding of GTP to G-proteins to which the receptors are coupled. In the GTP binding assay, GTP[γ]^35S is combined with test compounds and membranes from HEK-293S cells expressing the cloned human opioid receptors or from homogenised rat or mouse brain. Agonists stimulate GTP[γ]^35S binding in these membranes. The EC50 and Emax values of compounds are determined from dose-response curves. Right shifts of the dose response curve by the delta antagonist naltrindole are performed to verify that agonist activity is mediated through delta receptors. For human δ receptor functional assays, EC50 (low) is measured when the human δ receptors used in the assay were expressed at lower levels in comparison with those used in determining EC50 (high). The Emax values were determined in relation to the standard δ agonist SNC80, i.e., higher than 100% is a compound that have better efficacy than SNC80.
(§2) Rat brain membranes are thawed at 37° C., passed 3 times through a 25-gauge blunt-end needle and diluted in the GTPγS binding (50 mM Hepes, 20 mM NaOH, 100 mM NaCl, 1 mM EDTA, 5 mM MgCl2, pH 7.4, Add fresh: 1 mM DTT, 0.1% BSA). 120 μM GDP final is added membranes dilutions. The EC50 and Emax of compounds are evaluated from 10-point dose-response curves done in 300 μl with the appropriate amount of membrane protein (20 μg/well) and 100000-130000 dpm of GTPγ^35S per well (0.11-0.14 nM). The basal and maximal stimulated binding are determined in absence and presence of 3 μM SNC-80. The assay performed on HEK 293s cells stably expressing cloned Delta receptors is done in a slightly different buffer (50 mM Hepes, 20 mM NaOH, 200 mM NaCl, 1 mM EDTA, 5 mM MgCl2, pH 7.4, Add fresh: 0.5% BSA, no DTT) and with a 3 μM final conc. of GDP.

The target of the next test is T2, human κ receptors (Homo sapiens, UniProt P41145).
T2 construct: expressed in transfected cells; host or cells: human 293S cells, geneticin-selected
The test can be described thus: Binding assay, cloned human κ receptor membranes (125I-DPDYN displacement).

The target of test [3] is T3, δ receptors in rat brain membranes (Rattus norvegicus, UniProt P33533).
T3 construct: membranes from HEK-293S cells expressing the cloned human opioid receptors or from homogenised rat or mouse brain; from tissue; host or cells: rat brain homogenate membranes
Description: Rat brain GTP[γ]35S binding functional assay. It is filed as biochemical. The conditions noted are these: for Emax: Table 1, rat brain membranes, relative to SNC80. As for the experimental part: Rat brains are weighed and rinsed in ice-cold PBS (containing 2.5 mM EDTA, pH 7.4). The brains are homogenized with a polytron for 30 sec (rat) in ice-cold lysis buffer (50 mM Tris, pH 7.0, 2.5 mM EDTA, with phenylmethylsulfonyl fluoride added just prior use to […] from a 0.5M stock in DMSO:ethanol).
as §1, §2

The target of a further test is T4, human μ receptors (Homo sapiens, UniProt P35372).
T4 construct: expressed in transfected cells; host or cells: human 293S cells, geneticin-selected
The test can be described thus: Binding assay, cloned human μ receptor membranes (125I-FK33824 displacement).

The mark [4] stands for this setting: Table 2, lower receptor expression, read-out: Human δ % EMax (low).
The mark [5] stands for this setting: Table 2, read-out: Human κ IC50.
[6] abbreviates: Table 1, higher receptor expression, read-out: Human δ % EMax (high).

T3 sequence (P33533 whole entry): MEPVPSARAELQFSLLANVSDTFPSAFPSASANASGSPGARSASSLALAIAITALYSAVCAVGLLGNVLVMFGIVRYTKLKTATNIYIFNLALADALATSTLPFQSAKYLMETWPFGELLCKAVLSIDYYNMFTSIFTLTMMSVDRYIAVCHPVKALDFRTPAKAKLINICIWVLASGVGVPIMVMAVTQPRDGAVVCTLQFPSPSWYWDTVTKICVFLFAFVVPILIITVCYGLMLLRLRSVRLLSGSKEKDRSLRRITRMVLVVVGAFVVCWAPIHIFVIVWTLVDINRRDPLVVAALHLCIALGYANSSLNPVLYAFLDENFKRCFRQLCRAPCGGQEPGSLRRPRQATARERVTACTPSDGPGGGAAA
T1 sequence (P41143 whole entry): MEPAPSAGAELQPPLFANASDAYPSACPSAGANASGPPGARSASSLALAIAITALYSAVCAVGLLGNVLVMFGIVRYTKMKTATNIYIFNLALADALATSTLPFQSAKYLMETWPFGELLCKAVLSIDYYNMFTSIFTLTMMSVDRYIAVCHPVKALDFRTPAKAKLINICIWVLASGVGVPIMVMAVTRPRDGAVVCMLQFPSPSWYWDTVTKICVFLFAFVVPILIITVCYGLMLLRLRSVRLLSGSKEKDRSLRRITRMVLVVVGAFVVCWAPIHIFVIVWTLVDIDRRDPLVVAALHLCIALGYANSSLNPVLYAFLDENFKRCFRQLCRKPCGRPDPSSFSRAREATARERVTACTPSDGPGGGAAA
T2 sequence (P41145 whole entry): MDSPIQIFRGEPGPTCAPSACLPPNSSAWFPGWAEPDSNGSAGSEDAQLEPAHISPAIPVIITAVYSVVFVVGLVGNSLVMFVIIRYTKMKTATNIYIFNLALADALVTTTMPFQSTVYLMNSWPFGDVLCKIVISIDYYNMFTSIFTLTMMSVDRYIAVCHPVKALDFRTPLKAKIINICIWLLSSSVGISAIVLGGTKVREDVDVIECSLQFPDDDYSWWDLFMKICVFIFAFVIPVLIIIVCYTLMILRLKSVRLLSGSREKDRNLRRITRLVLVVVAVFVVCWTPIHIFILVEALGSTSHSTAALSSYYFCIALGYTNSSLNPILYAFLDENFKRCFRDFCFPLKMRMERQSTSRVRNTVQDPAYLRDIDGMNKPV
T4 sequence (P35372 whole entry): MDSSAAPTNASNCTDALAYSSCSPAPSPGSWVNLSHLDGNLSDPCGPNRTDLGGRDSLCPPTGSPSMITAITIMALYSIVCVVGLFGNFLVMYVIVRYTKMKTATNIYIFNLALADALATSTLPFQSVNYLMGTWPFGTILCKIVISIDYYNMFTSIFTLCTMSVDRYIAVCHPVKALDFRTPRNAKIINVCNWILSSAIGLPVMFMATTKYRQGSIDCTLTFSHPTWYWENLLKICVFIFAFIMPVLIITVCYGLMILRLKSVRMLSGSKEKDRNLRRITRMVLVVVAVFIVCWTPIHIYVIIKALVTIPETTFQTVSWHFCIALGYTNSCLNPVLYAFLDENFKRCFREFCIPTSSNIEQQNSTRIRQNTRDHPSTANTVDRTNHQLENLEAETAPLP

Consider `CCN(CC)C(=O)c1ccc(C(=C2CCN(Cc3cccnc3)CC2)c2cccc(NC(C)=O)c2)cc1` [Compound 5, 4-[[3-(acetylamino)phenyl][1-(3-pyridinylmethyl)-4-piperidinylidene]methyl]-N,N-diethyl-benzamide], for which the IC50 is 0.00019 to 0.00149 µM at human δ receptors [1] and 5.83 to 9.07 µM on human κ receptors. Further, the Emax on human δ receptors [2] (setting [4]) fell in the range of 80 to 112%.

With `CCN(CC)C(=O)c1ccc(C(=C2CCN(Cc3ccccn3)CC2)c2cccc(NC(C)=O)c2)cc1` [Compound 7, 4-{[3-(acetylamino)phenyl][1-(pyridin-2-ylmethyl)piperidin-4-ylidene]methyl}-N,N-diethylbenzamide], the concentration for half-maximal inhibition (IC50) was 0.00019 to 0.00149 µM at human δ receptors [1] and 5.83 to 9.07 µM on human κ receptors (setting [5]). In addition, on human δ receptors [2] (setting [4]), the Emax lay within 80 to 112%.

For the compound `CCN(CC)C(=O)c1ccc(C(=C2CCN(Cc3ccccc3)CC2)c2cccc(NC(C)=O)c2)cc1` [Compound 3, 4-[[3-(acetylamino)phenyl][1-(phenylmethyl)-4-piperidinylidene]methyl]-N,N-diethyl-benzamide], the figures for the EC50 (in test [3]; at human δ receptors [2]) were 0.0072 to 0.0158 µM and 0.00146 to 0.00265 µM, respectively. Moreover, the maximum response (Emax) in test [3] was in the range of 126 to 137%; at human δ receptors [2] (setting [6]) it was 95 to 98%. Besides, the IC50 on human δ receptors [1] was in the range of 0.00034 to 0.00059 µM; on human μ receptors, 0.344 to 0.368 µM; on human κ receptors it was 2.47 to 8 µM.

As to `CCN(CC)C(=O)c1ccc(C(=C2CCN(Cc3cscn3)CC2)c2cccc(NC(C)=O)c2)cc1` [Compound 8, 4-{[3-(acetylamino)phenyl][1-(1,3-thiazol-4-ylmethel)piperidin-4-ylidene]methyl}-N,N-diethylbenzamide], the figures for the IC50 at human δ receptors [1] and on human κ receptors (setting [5]) were 0.00019 to 0.00149 µM and 5.83 to 9.07 µM, respectively. Moreover, the Emax at human δ receptors [2] (setting [4]) lay in the range of 80 to 112%.

Take `CCN(CC)C(=O)c1ccc(C(=C2CCN(Cc3ccco3)CC2)c2cccc(NC(C)=O)c2)cc1` [Compound 2, 4-{[3-(acetylamino)phenyl][1-(2-furylmethyl)piperidin-4-ylidene]methyl}-N,N-diethylbenzamide]: the IC50 on human δ receptors [1] was in the range of 0.00019 to 0.00149 µM; on human κ receptors (setting [5]), 5.83 to 9.07 µM. Further, the Emax on human δ receptors [2] (setting [4]) was in the range of 80 to 112%.

Take `CCN(CC)C(=O)c1ccc(C(=C2CCN(Cc3ccncc3)CC2)c2cccc(NC(C)=O)c2)cc1` [Compound 6, 4-[[-3-(acetylamino)phenyl][1-(4-pyridinylmethyl)-4-piperidinylidene]methyl]-N,N-diethyl-benzamide]: the IC50 at human δ receptors [1] was in the range of 0.00019 to 0.00149 µM; at human κ receptors, 5.83 to 9.07 µM. Further, the Emax at human δ receptors [2] (setting [4]) is 80 to 112%.

`CCN(CC)C(=O)c1ccc(C(=C2CCN(Cc3cccs3)CC2)c2cccc(NC(C)=O)c2)cc1` [Compound 1, 4-{[3-(acetylamino)phenyl][1-(thien-2-ylmethyl)piperidin-4-ylidene]methyl}-N,N-diethylbenzamide]: the results for the IC50 at human δ receptors [1] and at human κ receptors (setting [5]) were 0.00019 to 0.00149 µM and 5.83 to 9.07 µM, respectively. For the same compound, the Emax on human δ receptors [2] (setting [4]) lay within 80 to 112%.

Turning to `CCN(CC)C(=O)c1ccc(C(=C2CCN(Cc3cncs3)CC2)c2cccc(NC(C)=O)c2)cc1` [Compound 9, 4-{[3-(acetylamino)phenyl][1-(1,3-thiazol-5-ylmethyl)piperidin-4-ylidene]methyl}-N,N-diethylbenzamide], the IC50 at human δ receptors [1] lay in the range of 0.00019 to 0.00149 µM; on human κ receptors (setting [5]), 5.83 to 9.07 µM. In addition, the Emax on human δ receptors [2] (setting [4]) was in the range of 80 to 112%.

Take `CCN(CC)C(=O)c1ccc(C(=C2CCN(Cc3ccsc3)CC2)c2cccc(NC(C)=O)c2)cc1` [Compound 4, 4-[[3-(acetylamino)phenyl][1-(3-thienylmethyl)-4-piperidinylidene]methyl]-N,N-diethyl-benzamide]: the EC50 in test [3] was in the range of 0.0072 to 0.0158 µM; on human δ receptors [2] it was 0.00146 to 0.00265 µM. Moreover, the maximum response (Emax) in test [3] fell in the range of 126 to 137%; on human δ receptors [2] (setting [6]), 95 to 98%. The values for the IC50 on human δ receptors [1], at human μ receptors and on human κ receptors were 0.00034 to 0.00059 µM, 0.344 to 0.368 µM and 2.47 to 8 µM, respectively.

These data come from US20060154964A1, “Diarylmethylidene piperidine derivatives, preparations thereof and uses thereof” (AstraZeneca AB, priority 2003, published 2006).
